In PubChem BioAssay AID330 (DTP/NCI, 2004):
Several values for one entry are separate records, joined by “and”; a condition that tells them apart may be missing. Identical values can stand only once. Toxic doses and inconclusive results are not listed. The calls were made as follows: active = survival T/C of 150% or more; inactive = T/C below 125% in these data. Peptide text beside a SMILES is read from it. * marks the point of attachment. X13 = CC(C)CC(NN)C(=O)*

System: P388 leukemia ip, CD2F1 mice, survival T/C
Assay: NCI In Vivo Anticancer Drug Screen. Data for tumor model P388 Leukemia (intraperitoneal) in CD2F1 (CDF1) mice
Conditions: endpoint: median survival time, higher = longer survival
Method in brief: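 Mice carrying the transplanted tumor received test compound or vehicle. Survival was recorded in each group, and the value is the treated-group measurement divided by that of the vehicle-treated control group.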

[1] = dose: 50.0 mg/kg/injection, schedule: Q01DX009 (ip), vehicle: saline with Tween-80
[2] = dose: 100.0 mg/kg/injection, schedule: Q01DX009 (ip), vehicle: saline with Tween-80
[3] = dose: 200.0 mg/kg/injection, schedule: Q01DX009 (ip), vehicle: saline with Tween-80
[4] = dose: 12.5 mg/kg/injection, schedule: Q01DX005 (ip), vehicle: saline with Tween-80
[5] = dose: 25.0 mg/kg/injection, schedule: Q01DX005 (ip), vehicle: saline with Tween-80
[6] = dose: 50.0 mg/kg/injection, schedule: Q01DX005 (ip), vehicle: saline with Tween-80
[7] = dose: 50.0 mg/kg/injection, schedule: Q01DX005 (ip), vehicle: Klucel (hydroxypropylcellulose) (HPC)
[8] = dose: 100.0 mg/kg/injection, schedule: Q01DX005 (ip), vehicle: Klucel (hydroxypropylcellulose) (HPC)
[9] = dose: 200.0 mg/kg/injection, schedule: Q01DX005 (ip), vehicle: Klucel (hydroxypropylcellulose) (HPC)
[10] = dose: 12.5 mg/kg/injection, schedule: Q01DX009 (ip), vehicle: saline
[11] = dose: 25.0 mg/kg/injection, schedule: Q01DX009 (ip), vehicle: saline
[12] = dose: 100.0 mg/kg/injection, schedule: Q01DX005 (ip), vehicle: saline with Tween-80
[13] = dose: 200.0 mg/kg/injection, schedule: Q01DX005 (ip), vehicle: saline with Tween-80
[14] = dose: 100.0 mg/kg/injection, schedule: Q01DX009 (ip), vehicle: saline
[15] = dose: 200.0 mg/kg/injection, schedule: Q01DX009 (ip), vehicle: saline
[16] = dose: 50.0 mg/kg/injection, schedule: Q01DX009 (ip), vehicle: saline

Measured: T/C

CSc1cccc(NC(=O)OCCOc2ccccc2Cl)c1
inactive: [1] 105 % of control | [2] 101 % of control | [3] 100 % of control

CN=c1s[se]c2ccccc12
inactive: dose: 12.5 mg/kg/injection, schedule: Q01DX009 (ip), vehicle: Klucel (hydroxypropylcellulose) (HPC) 102 % of control | dose: 25.0 mg/kg/injection, schedule: Q01DX009 (ip), vehicle: Klucel (hydroxypropylcellulose) (HPC) 94 % of control

NC1=NC(c2ccccc2)C=C(c2ccccc2)N1 (stereo not given)
inactive: dose: 12.5 mg/kg/injection, schedule: Q04DX002 (ip), vehicle: saline with Tween-80 104 % of control | dose: 25.0 mg/kg/injection, schedule: Q04DX002 (ip), vehicle: saline with Tween-80 103 % of control | dose: 50.0 mg/kg/injection, schedule: Q04DX002 (ip), vehicle: saline with Tween-80 103 % of control

COc1ccc2ccc3cccnc3c2n1
inactive: dose: 60.0 mg/kg/injection, schedule: Q01DX005 (ip), vehicle: saline with Tween-80 93 % of control | dose: 120.0 mg/kg/injection, schedule: Q01DX005 (ip), vehicle: saline with Tween-80 99 % of control | dose: 240.0 mg/kg/injection, schedule: Q01DX005 (ip), vehicle: saline with Tween-80 105 % of control

Clc1ccc(CCNCc2ccc(Cl)cc2)cc1
inactive: [4] 87 % of control | [5] 97 % of control | [6] 106 % of control and 97 % of control

Fc1ccc(C=NC23CC4CC(CC(C4)C2)C3)cc1
inactive: [1] 93 % of control | [2] 91 % of control | [3] 97 % of control

O=C(N/N=C/C(O)C1OC(=O)C(O)C1O)c1ccncc1 (stereo not given)
inactive: [7] 105 % of control | [8] 101 % of control | [9] 99 % of control

CC(C)CC(NN)C(=O)NC(CCCN=C(N)N)C(=O)NC(CCCN=C(N)N)C(=O)NC(C)C(=O)NC(CO)C(=O)NC(C(=O)NC(C)C(=O)O)C(C)C (stereo not given) (X13-RRASVA-OH; configuration not given here)
inactive: dose: 4.5 mg/kg/injection, schedule: Q01DX009 (ip), vehicle: Klucel (hydroxypropylcellulose) (HPC) 101 % of control | dose: 9.0 mg/kg/injection, schedule: Q01DX009 (ip), vehicle: Klucel (hydroxypropylcellulose) (HPC) 94 % of control | dose: 18.0 mg/kg/injection, schedule: Q01DX009 (ip), vehicle: Klucel (hydroxypropylcellulose) (HPC) 98 % of control | dose: 36.0 mg/kg/injection, schedule: Q01DX009 (ip), vehicle: Klucel (hydroxypropylcellulose) (HPC) 96 % of control

Fc1cccc(-n2nc3c(c2-c2cccnc2)CCCc2ccccc2-3)c1
inactive: dose: 100.0 mg/kg/injection, schedule: Q01DX001 (ip), vehicle: Klucel (hydroxypropylcellulose) (HPC) 106 % of control | dose: 200.0 mg/kg/injection, schedule: Q01DX001 (ip), vehicle: Klucel (hydroxypropylcellulose) (HPC) 102 % of control | dose: 400.0 mg/kg/injection, schedule: Q01DX001 (ip), vehicle: Klucel (hydroxypropylcellulose) (HPC) 106 % of control

S=C(Cl)Sc1ccc(-c2ccc(SC(=S)Cl)cc2)cc1
inactive: [7] 88 % of control | [8] 88 % of control | [9] 87 % of control

ClCCN(CCCl)c1ccc(CCN2CCOCC2)cc1
active: [10] 150 % of control and 154 % of control | [11] 150 % of control and 220 % of control
inactive: dose: 6.25 mg/kg/injection, schedule: Q01DX009 (ip), vehicle: saline 100 % of control and 113 % of control

CC(=O)O[C@@H]1C[C@@](C)(C[C@H]2COC(=O)C2)[C@@H]2CC(=O)O[C@@H]3C[C@H]4C(C)=C[C@@H](O)C(=O)[C@]4(C)[C@@H]1[C@@]32C
inactive: dose: 1.5 mg/kg/injection, schedule: Q01DX009 (ip), vehicle: Klucel (hydroxypropylcellulose) (HPC) 99 % of control | dose: 3.0 mg/kg/injection, schedule: Q01DX009 (ip), vehicle: Klucel (hydroxypropylcellulose) (HPC) 92 % of control | dose: 6.0 mg/kg/injection, schedule: Q01DX009 (ip), vehicle: Klucel (hydroxypropylcellulose) (HPC) 108 % of control | dose: 12.0 mg/kg/injection, schedule: Q01DX009 (ip), vehicle: Klucel (hydroxypropylcellulose) (HPC) 91 % of control

O=C(O)Cc1c[nH]c2cc(Cl)cc(Cl)c12
inactive: dose: 100.0 mg/kg/injection, schedule: Q04DX002 (ip), vehicle: saline with Tween-80 101 % of control | dose: 200.0 mg/kg/injection, schedule: Q04DX002 (ip), vehicle: saline with Tween-80 104 % of control | dose: 400.0 mg/kg/injection, schedule: Q04DX002 (ip), vehicle: saline with Tween-80 101 % of control

Cc1ccc(N2CCOS(=O)OCC2)cc1
inactive: [6] 101 % of control | [12] 98 % of control | [13] 101 % of control

Cc1cc(O)c(Cl)cc1Cl
inactive: [14] 100 % of control | [15] 99 % of control | dose: 400.0 mg/kg/injection, schedule: Q01DX009 (ip), vehicle: saline 97 % of control

CCC(c1ccc(OCCS(=O)(=O)OC)cc1)C(CC)c1ccc(OCCS(=O)(=O)OC)cc1 (stereo not given)
inactive: dose: 12.5 mg/kg/injection, schedule: Q01DX009 (ip), vehicle: suspension in saline 100 % of control | dose: 25.0 mg/kg/injection, schedule: Q01DX009 (ip), vehicle: suspension in saline 94 % of control | [16] 91 % of control | dose: 50.0 mg/kg/injection, schedule: Q01DX009 (ip), vehicle: suspension in saline 87 % of control | [15] 92 % of control

COc1ccc(Cc2cc3c(cc2OCC(=O)NN)OCO3)cc1
inactive: [7] 89 % of control | [8] 88 % of control | [9] 91 % of control

O=C1OC(c2ccccc2Br)=N/C1=C/c1ccccc1
inactive: [7] 99 % of control | [8] 91 % of control | [9] 98 % of control

COC(=O)NC12CC3CC(C(C)O1)C2N(Cc1ccccc1)C3 (stereo not given)
inactive: dose: 25.0 mg/kg/injection, schedule: Q01DX005 (ip), vehicle: Klucel (hydroxypropylcellulose) (HPC) 100 % of control | [7] 93 % of control | [8] 94 % of control

O=C1c2ccccc2C(=O)N1CCS(=O)(=O)O
inactive: [10] 100 % of control | [11] 104 % of control | [16] 100 % of control | [14] 98 % of control

CC1C2c3ccccc3C(c3ccccc32)C1C(=O)O (stereo not given)
inactive: [6] 98 % of control | [12] 100 % of control | [13] 107 % of control

CC(C)CN=C(N)Nc1cccc(NC(=O)Nc2ccc(Cl)cc2)c1
inactive: dose: 12.5 mg/kg/injection, schedule: Q01DX009 (ip), vehicle: saline with Tween-80 92 % of control | dose: 25.0 mg/kg/injection, schedule: Q01DX009 (ip), vehicle: saline with Tween-80 86 % of control | [1] 109 % of control and 91 % of control

Nc1nc2scnc2c(=O)[nH]1
inactive: [4] 88 % of control | [5] 101 % of control | [6] 109 % of control and 97 % of control | [12] 102 % of control | [13] 112 % of control

N#Cc1ccc(NC(=O)Nc2nccs2)cc1
inactive: dose: 12.5 mg/kg/injection, schedule: Q01DX009 (ip), vehicle: distilled water + Tween-80 108 % of control | dose: 25.0 mg/kg/injection, schedule: Q01DX009 (ip), vehicle: distilled water + Tween-80 117 % of control

CCN(CC)c1ccc(NC2=CC(=O)C(Nc3ccc(N(CC)CC)cc3)=CC2=O)cc1
inactive: [6] 91 % of control | [12] 89 % of control | [13] 89 % of control

O=C1c2c(O)ccc(O)c2C(=O)c2c(NCCCCCO)ccc(NCCCCCO)c21
inactive: dose: 20.0 mg/kg/injection, schedule: Q01DX009 (ip), vehicle: Klucel (hydroxypropylcellulose) (HPC) 94 % of control | dose: 40.0 mg/kg/injection, schedule: Q01DX009 (ip), vehicle: Klucel (hydroxypropylcellulose) (HPC) 89 % of control | dose: 80.0 mg/kg/injection, schedule: Q01DX009 (ip), vehicle: Klucel (hydroxypropylcellulose) (HPC) 93 % of control | dose: 160.0 mg/kg/injection, schedule: Q01DX009 (ip), vehicle: Klucel (hydroxypropylcellulose) (HPC) 93 % of control | dose: 320.0 mg/kg/injection, schedule: Q01DX009 (ip), vehicle: Klucel (hydroxypropylcellulose) (HPC) 111 % of control

CN(C)CCN1CC2Cc3ccccc3C1c1ccccc12 (stereo not given)
inactive: dose: 100.0 mg/kg/injection, schedule: Q04DX003 (ip), vehicle: Klucel (hydroxypropylcellulose) (HPC) 102 % of control | dose: 200.0 mg/kg/injection, schedule: Q04DX003 (ip), vehicle: Klucel (hydroxypropylcellulose) (HPC) 102 % of control

NC(=O)c1cccnc1
inactive: [1] 106 % of control | [2] 110 % of control | [3] 97 % of control | dose: 250.0 mg/kg/injection, schedule: Q01DX009 (sc), vehicle: saline 102 % of control | dose: 500.0 mg/kg/injection, schedule: Q01DX009 (sc), vehicle: saline 105 % of control

CC(=O)C1C(=O)C(=O)N(c2ccccc2[N+](=O)[O-])C1=O (stereo not given)
inactive: [4] 101 % of control | [5] 107 % of control | [6] 100 % of control and 113 % of control
